These are literature values, as cited in PMC3328449, “Inhibition of Diacylglycerol–Sensitive TRPC Channels by Synthetic and Natural Steroids” (PLoS ONE, 2012).

One data set relates to TRPC3. The arrangement: method as in PMID 19289841. To be noted: read-out: half maximal inhibitory concentration (IC50), TRPC3; cited from earlier work.
The test system of the next data set is other TRPC channels. The arrangement: method as in PMID 19289841. Particulars: cited from earlier work.

`CCOC(=O)c1cnn(-c2ccc(NC(=O)C(Cl)=C(Cl)Cl)cc2)c1C(F)(F)F` [Pyr3]: the IC50 in the data set on TRPC3 was 700 nM. Also, the “Effects on other TRPC channels” value in the data set on other TRPC channels is given as “without having effects”.
